Assay results published in PubChem BioAssay AID1259348 (Broad Institute, 2017).
Calls of active or inactive are those of the source.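 How the source made its calls: active means any compound with an IC50 of 100 nM or lower; inactive means the rest.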

Target: Insulin-degrading enzyme (Homo sapiens) (UniProt P14735)
Test: inhibitors of IDE decapeptide proteolysis, dose response, counter-screen for IDE exo-site inhibitor project, biochemical, kinetic mode (AID 1259348);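 on z-score: purified IDE bound to fluorescein-labelled 6b probe FL-6b at the exo-site; probe displacement lowers polarization so hits show a drop in FP signal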
Conditions: purified human IDE, fluorogenic decapeptide proteolysis; for z-score: measured here: primary FP probe displacement screen, stronger effect = lower value

Sequence of Insulin-degrading enzyme (Homo sapiens) (P14735 42-1019 limits assumed): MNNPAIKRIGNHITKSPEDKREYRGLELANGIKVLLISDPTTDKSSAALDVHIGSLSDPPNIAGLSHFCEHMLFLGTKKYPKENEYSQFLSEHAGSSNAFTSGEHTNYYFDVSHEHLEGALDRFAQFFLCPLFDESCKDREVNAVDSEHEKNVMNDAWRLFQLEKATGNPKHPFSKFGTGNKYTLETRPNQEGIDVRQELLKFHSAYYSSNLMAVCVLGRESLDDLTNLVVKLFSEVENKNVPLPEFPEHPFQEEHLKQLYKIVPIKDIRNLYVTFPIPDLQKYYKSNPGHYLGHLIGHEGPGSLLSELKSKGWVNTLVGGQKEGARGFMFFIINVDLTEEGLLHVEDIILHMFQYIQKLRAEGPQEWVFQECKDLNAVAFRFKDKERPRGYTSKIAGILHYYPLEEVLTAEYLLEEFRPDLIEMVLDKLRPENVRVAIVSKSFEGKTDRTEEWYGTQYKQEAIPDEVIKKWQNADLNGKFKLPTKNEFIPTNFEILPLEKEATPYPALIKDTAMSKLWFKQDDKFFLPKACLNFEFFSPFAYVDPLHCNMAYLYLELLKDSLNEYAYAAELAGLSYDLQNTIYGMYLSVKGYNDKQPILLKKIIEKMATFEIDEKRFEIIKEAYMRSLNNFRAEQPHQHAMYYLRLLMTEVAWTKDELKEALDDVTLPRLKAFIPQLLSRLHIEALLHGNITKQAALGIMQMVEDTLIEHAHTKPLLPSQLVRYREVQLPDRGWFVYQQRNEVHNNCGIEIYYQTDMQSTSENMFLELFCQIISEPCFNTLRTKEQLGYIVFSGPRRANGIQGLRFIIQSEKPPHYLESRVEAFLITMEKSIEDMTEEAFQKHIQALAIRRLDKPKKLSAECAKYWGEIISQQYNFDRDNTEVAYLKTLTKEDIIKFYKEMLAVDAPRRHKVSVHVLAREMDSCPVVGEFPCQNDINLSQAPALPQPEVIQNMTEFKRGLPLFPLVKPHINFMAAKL

Structure (SMILES)	IC50	z-score
COc1ccccc1-c1ccc([C@H]2[C@@H](CO)N[C@@H]2CNC(=O)C2CCCC2)cc1	5.1 µM	-10.9
CC(=O)N1CCCCN2[C@H](CO)[C@@H](c3ccc(-c4cccc(C)c4)cc3)[C@@H]2C1	16.5 µM	-3.48
Cc1cccc(-c2ccc([C@@H]3[C@H](CO)N4CCCCN(S(=O)(=O)c5ccccc5F)C[C@@H]34)cc2)c1	0.55 µM	-22.1
Cc1cccc(-c2ccc([C@@H]3[C@@H](CO)N4CCCCN(Cc5cncnc5)C[C@@H]34)cc2)c1	11.9 µM	-6.65
O=C(c1ccccn1)N1CC(=O)N2[C@@H](CO)[C@@H](c3ccc(C#Cc4ccccc4)cc3)[C@@H]2C1	5.2 µM	-19.9
Cc1ccccc1-c1ccc([C@H]2[C@H]3CN(C(=O)NC4CCCC4)CC(=O)N3[C@H]2CO)cc1	6 µM	-12.4
COc1cccc(-c2ccc([C@@H]3[C@@H](CO)N4CCCCN(CC5CCOCC5)C[C@@H]34)cc2)c1	30 µM	
Cc1ccccc1-c1ccc([C@H]2[C@@H](CO)N3CCCCN(C(=O)Cc4ccccn4)C[C@@H]23)cc1	50 µM	-5.7
Cc1cccc(-c2ccc([C@@H]3[C@@H](CO)N4CCCCN(C(=O)c5cccnc5)C[C@@H]34)cc2)c1	> 100 µM (inactive)	-3.25
Cc1cccc(-c2ccc([C@H]3[C@@H](CO)N4CCCCN(Cc5cccnc5)C[C@H]34)cc2)c1	10.7 µM	-6.79
Cc1ccccc1-c1ccc([C@@H]2[C@@H](CO)N3CCCCN(C(=O)Cc4ccccn4)C[C@@H]23)cc1	11.5 µM	-9.54
Cc1ccccc1-c1ccc([C@H]2[C@@H](CO)N3CCCCN(C(=O)c4cccnc4)C[C@@H]23)cc1	12.5 µM	-4.79
Cc1ccccc1-c1ccc([C@H]2[C@@H](CO)N3CCCCN(Cc4cccnc4)C[C@H]23)cc1	4.8 µM	-11.4
Cc1ccccc1-c1ccc(C2[C@@H]3CN(C(=O)Cc4ccncc4)C[C@H]2N3)cc1 (some centres not stated)	2.2 µM	-9.03
Cc1ccccc1-c1ccc([C@H]2[C@@H](CO)N3CCCCN(C(=O)Nc4cccc(F)c4)C[C@@H]23)cc1	3.8 µM	-4.36
Cc1ccccc1-c1ccc([C@@H]2[C@H]3CN(C(=O)Cc4ccccn4)CC(=O)N3[C@H]2CO)cc1	2 µM	-17.7
COc1ccccc1-c1ccc([C@H]2[C@@H](CO)N(C(=O)NC(C)C)[C@H]2C#N)cc1	20 µM	-16.3
Cc1ccccc1-c1ccc([C@H]2[C@@H](CO)N3CCCCN(C(=O)CN4CCOCC4)C[C@@H]23)cc1	25 µM	0.13
Cc1cccc(-c2ccc([C@@H]3[C@@H](CO)N4CCCCN(C(=O)NC(C)C)C[C@@H]34)cc2)c1	6.2 µM	-5.51
COCC(=O)N1CCCCN2[C@H](CO)[C@@H](c3ccc(-c4cccc(C)c4)cc3)[C@@H]2C1	16 µM	-5.29
CCCNC(=O)N1CC(=O)N2[C@@H](CO)[C@@H](c3ccc(C#Cc4cccc(OC)c4)cc3)[C@@H]2C1	11 µM	-1.33
Cc1ccccc1-c1ccc([C@@H]2[C@H]3CN(C(=O)c4cccnc4)CC(=O)N3[C@H]2CO)cc1	2.6 µM	-19.7
Cc1cccc(-c2ccc([C@@H]3[C@@H](CO)N4CCCCN(S(=O)(=O)c5cccs5)C[C@@H]34)cc2)c1	0.8 µM	-3.77

Structure (SMILES)	IC50	z-score
O=C(NC1CCCC1)N1CCCCN2[C@H](C1)[C@H](c1ccc(/C=C/c3ccccc3)cc1)[C@@H]2CO	11.5 µM	-13.2
Cc1ccccc1-c1ccc([C@@H]2[C@H](CO)N3CCCCN(C(=O)NC4CCCC4)C[C@@H]23)cc1	1.55 µM	-19
COc1cccc(-c2ccc([C@@H]3[C@@H](CO)N4CCCCN(CC5CC5)C[C@@H]34)cc2)c1	22.5 µM	-2.88
COc1ccccc1C#Cc1ccc([C@H]2[C@H](CO)N3CCCCN(C(=O)C4CCC4)C[C@@H]23)cc1	2.7 µM	-12.3
Cc1ccccc1-c1ccc([C@H]2[C@@H](CO)N3CCCCN(S(C)(=O)=O)C[C@@H]23)cc1	> 100 µM (inactive)	-2.31
COc1cccc(C#Cc2ccc([C@@H]3[C@H](CO)N4C(=O)CN(C(C)=O)C[C@@H]34)cc2)c1	3.7 µM	-15.3
Cc1ccccc1-c1ccc(C2[C@@H]3CN(C(=O)C4CCCCC4)C[C@H]2N3)cc1 (some centres not stated)	1.5 µM	-13.9
COc1cccc(C#Cc2ccc([C@@H]3[C@H](CO)N4C(=O)CN(C(=O)Cc5cccnc5)C[C@@H]34)cc2)c1	6.2 µM	-4.12
CCS(=O)(=O)N1CCCCN2[C@@H](CO)[C@@H](c3ccc(C#Cc4ccccc4OC)cc3)[C@@H]2C1	1.8 µM	-19.7
Cc1ccccc1-c1ccc([C@H]2[C@@H](CO)N3CCCCN(S(=O)(=O)c4ccc(F)cc4)C[C@@H]23)cc1	85 µM	3.66
Cc1ccccc1-c1ccc([C@H]2[C@@H](CO)N3C(=O)CN(C(=O)Cc4ccccn4)C[C@@H]23)cc1	3.2 µM	-17.3
COc1ccccc1-c1ccc([C@H]2[C@H](C#N)N[C@@H]2CO)cc1	6.3 µM	-12
CCCNC(=O)N1CC(=O)N2[C@H](CO)[C@@H](c3ccc(-c4cccc(C)c4)cc3)[C@@H]2C1	0.77 µM	-22.4
O=C(NC1CCCC1)N1CCCCN2[C@@H](CO)[C@H](c3ccc(/C=C/c4ccccc4)cc3)[C@@H]2C1	0.88 µM	-14.8
Cc1cccc(-c2ccc([C@@H]3[C@@H](CO)N4CCCCN(S(=O)(=O)c5cccc(C)c5)C[C@@H]34)cc2)c1	1 µM	-9.77
Cc1cccc(-c2ccc([C@@H]3[C@@H](CO)N4CCCCN(C(=O)c5ccc6c(c5)OCO6)C[C@@H]34)cc2)c1	> 100 µM (inactive)	
COc1ccccc1-c1ccc([C@H]2[C@@H](CO)N3CCCCN(C(=O)c4cccnc4)C[C@H]23)cc1	13.2 µM	-12.8
Cc1ccccc1-c1ccc([C@H]2[C@@H](CO)N3CCCCN(C(=O)c4cccnc4)C[C@H]23)cc1	3.1 µM	-16.5
Cc1cccc(-c2ccc([C@@H]3[C@H]4CN(C(=O)c5cccnc5)CCCCN4[C@H]3CO)cc2)c1	6.6 µM	-15.2
Cc1ccccc1-c1ccc([C@@H]2[C@@H](CO)N3C(=O)CN(C(=O)Cc4ccccn4)C[C@@H]23)cc1	2.7 µM	-19.9
Cc1ccccc1-c1ccc([C@@H]2[C@H](CO)N3CCCCN(C(=O)Cc4ccccn4)C[C@@H]23)cc1	4.9 µM	-15.5
Cc1cccc(-c2ccc([C@@H]3[C@@H](CO)N4C(=O)CN(C(=O)NC5CCCCC5)C[C@@H]34)cc2)c1	0.67 µM	-16.6
COc1ccccc1NC(=O)N1CCCCN2[C@H](CO)[C@@H](c3ccc(-c4cccc(C)c4)cc3)[C@@H]2C1	7.6 µM	-2.84

Structure (SMILES)	IC50	z-score
CN1C(=O)c2cc(NC(=O)Nc3ccccc3Cl)ccc2OC[C@H]2O[C@H](CC(=O)NCCCN3CCOCC3)CC[C@@H]21	1.7 µM	-14.2
Cc1ccccc1-c1ccc([C@H]2[C@@H](CO)N3CCCCN(C(=O)Nc4ccccc4)C[C@@H]23)cc1	2.9 µM	-1.37
Cc1ccccc1-c1ccc([C@H]2[C@@H](CO)N3CCCCN(C(=O)Nc4ccc(F)cc4)C[C@@H]23)cc1	3 µM	-1.63
Cc1ccccc1-c1ccc([C@H]2[C@@H](CO)N3C(=O)CN(C(=O)Nc4ccc(F)cc4)C[C@H]23)cc1	0.47 µM	-21.3
CCC(=O)N1[C@H](CO)[C@H](c2ccc(-c3ccccc3OC)cc2)[C@@H]1CNC(C)=O	5.8 µM	-15
Cc1cccc(-c2ccc([C@@H]3[C@@H](CO)N4C(=O)CN(C(=O)Cc5ccccn5)C[C@@H]34)cc2)c1	3.3 µM	-11.8
OC[C@H]1[C@@H](c2ccc(C#Cc3ccccc3)cc2)[C@@H]2CN(Cc3cncnc3)CCCCN12	4.3 µM	-16.2
Cc1ccccc1-c1ccc([C@H]2[C@H](CO)N3C(=O)CN(C(=O)c4ccncc4)C[C@@H]23)cc1	4.5 µM	-7.39
COc1ccccc1-c1ccc([C@H]2[C@@H](CO)N3CCCCN(C(=O)c4ccncc4)C[C@H]23)cc1	4.9 µM	-17.2
COc1ccccc1C#Cc1ccc([C@H]2[C@H]3CN(C(=O)C4CCC4)CCCCN3[C@H]2CO)cc1	> 100 µM (inactive)	-17.5
Cc1ccccc1-c1ccc(C2[C@@H]3CN(S(=O)(=O)c4cn(C)cn4)C[C@H]2N3)cc1 (some centres not stated)	3.9 µM	-16.6
O=C(NC1CCCC1)N1CC(=O)N2[C@H](CO)[C@@H](c3ccc(-c4cccnc4)cc3)[C@@H]2C1	14 µM	-12.2
Cc1cccc(-c2ccc([C@@H]3[C@@H](CO)N4CCCCN(S(=O)(=O)c5cn(C)cn5)C[C@@H]34)cc2)c1	0.9 µM	-17.5
Cc1cccc(-c2ccc([C@H]3[C@@H](CO)N4CCCCN(C(=O)c5cccnc5)C[C@H]34)cc2)c1	3.4 µM	-17
COc1ccccc1-c1ccc(C2[C@@H]3CN(C(=O)c4cccnc4)C[C@H]2N3)cc1 (some centres not stated)	7.1 µM	-13.8
Cc1cccc(-c2ccc([C@H]3[C@@H](CO)N4CCCCN(C(=O)c5ccncc5)C[C@H]34)cc2)c1	3 µM	-18.3
Cc1ccccc1-c1ccc(C2[C@@H]3CN(C(=O)c4cnccn4)C[C@H]2N3)cc1 (some centres not stated)	2 µM	-20
Cc1ccccc1-c1ccc([C@@H]2[C@@H](CO)N3CCCCN(S(C)(=O)=O)C[C@@H]23)cc1	1.3 µM	-17.9
Cc1ccccc1-c1ccc(C2[C@@H]3CN(Cc4cocn4)C[C@H]2N3)cc1 (some centres not stated)	6.7 µM	-3.01
CO[C@@H]1CN(C)C(=O)c2cc(NC(=O)c3ccc(Oc4ccccc4)cc3)ccc2OC[C@@H](C)NC[C@@H]1C	2.4 µM	-11.5
Cc1ccccc1-c1ccc([C@H]2[C@H](CO)N3C(=O)CN(C(=O)NC4CCCC4)C[C@@H]23)cc1	0.37 µM	-20.8
